# Patent US20240317735A1, “HYDROISOQUINOLINE OR HYDRONAPHTHYRIDINE COMPOUNDS FOR THE TREATMENT OF AUTOIMMUNE DISEASE” (Hoffmann-La Roche Inc., priority 2020, published 2024)
# Tests used:
# TLR9 = target: T1, TLR9 (Homo sapiens, UniProt Q9NR96); assay: Human PBMC cell-based assay (CpG ODN 2216 stimulation); design: These cells express TLR7, TLR8, or TLR9, and therefore are natural responders to respective ligand stimulation; endogenous in cells; host or cells: human PBMC from healthy donor whole blood; conditions: CpG ODN 2216 at 1 μM, overnight, read-out: hPBMC/TLR9 IC50
# T1 sequence (Q9NR96 26-1032): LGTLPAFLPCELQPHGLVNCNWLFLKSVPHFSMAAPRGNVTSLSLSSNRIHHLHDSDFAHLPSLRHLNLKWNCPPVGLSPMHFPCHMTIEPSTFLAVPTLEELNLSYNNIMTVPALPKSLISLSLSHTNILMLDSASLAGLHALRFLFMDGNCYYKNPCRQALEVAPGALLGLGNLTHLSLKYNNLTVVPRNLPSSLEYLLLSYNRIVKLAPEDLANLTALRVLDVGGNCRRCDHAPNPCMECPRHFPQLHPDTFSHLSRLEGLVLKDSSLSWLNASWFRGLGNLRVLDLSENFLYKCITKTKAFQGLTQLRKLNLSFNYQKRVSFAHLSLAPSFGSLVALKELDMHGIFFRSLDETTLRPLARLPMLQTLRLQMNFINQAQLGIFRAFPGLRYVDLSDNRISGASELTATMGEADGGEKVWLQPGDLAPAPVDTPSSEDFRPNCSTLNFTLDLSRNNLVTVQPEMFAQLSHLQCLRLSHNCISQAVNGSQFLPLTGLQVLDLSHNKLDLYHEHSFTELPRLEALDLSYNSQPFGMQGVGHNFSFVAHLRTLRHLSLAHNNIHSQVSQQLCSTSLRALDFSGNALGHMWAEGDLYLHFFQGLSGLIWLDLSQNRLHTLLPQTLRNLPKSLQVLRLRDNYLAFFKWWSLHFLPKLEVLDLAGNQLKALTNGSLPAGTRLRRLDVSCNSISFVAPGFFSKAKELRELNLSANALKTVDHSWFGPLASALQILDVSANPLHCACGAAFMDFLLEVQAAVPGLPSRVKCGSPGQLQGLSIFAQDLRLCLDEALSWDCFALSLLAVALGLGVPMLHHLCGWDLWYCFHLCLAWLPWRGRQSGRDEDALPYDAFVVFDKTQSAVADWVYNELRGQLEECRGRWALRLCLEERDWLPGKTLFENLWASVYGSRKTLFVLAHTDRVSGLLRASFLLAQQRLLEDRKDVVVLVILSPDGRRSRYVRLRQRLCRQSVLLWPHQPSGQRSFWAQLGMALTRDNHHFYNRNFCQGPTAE
# Source text: Unlike the HEK reporter cell lines, human peripheral blood mononuclear cell (PBMC) represents primary human immune cells in blood mainly consisting of lymphocytes, monocytes, and dendritic cells. These cells express TLR7, TLR8, or TLR9, and therefore are natural responders to respective ligand stimulation. Upon activation of these TLRs, PBMCs secrete similar cytokines and chemokines in vitro and in vivo, and therefore the in vitro potency of a TLR7/8/9 antagonist in human PBMC is readily translatable to its pharmacodynamics response in vivo.
# Human peripheral blood mononuclear cells (PBMC) were isolated from freshly-drawn lithium-heparinized (Lithium Heparin Plus blood Collection tube, BD Vacutainer®) healthy donor whole blood by density gradient (Ficoll-Paque™ PLUS, GE Healthcare life Sciences). Briefly, 50 mL of blood was diluted with 25 mL PBS (without Ca^2+, Mg^2+) in a 50 mL conical tube with porous barrier (Leucosep tube, Greiner bio-one), where 15.5 mL Ficoll-Paque was under laid after spinning. Tubes were centrifuged for 20 minutes at 800×g (1946 rpm) with the brake in the off position, and PBMC were collected from the buffy coat. Cells were then washed twice in PBS, and red blood cells were lysed by suspension in 2 mL (Red Blood Cell Lysis Buffer, Alfa Aesar) for 5-10 minutes at room temperature. After a final wash in PBS, PBMC were resuspended at a final concentration of 2×10^6 cells/mL in RPMI-1640 media with GlutaMAX™ (Gibco) supplemented with 10% Fetal Bovine Serum (Sigma) and plated at 150 μL/well (3×10^5 cells/well) in tissue culture treated round bottom 96-well plates (Corning Incorporated). Antagonist compounds (compounds of this invention) solubilized and serial diluted in 100% DMSO were added in duplicate to cells to yield a final concentration of 1% DMSO (v/v). PBMC were incubated with antagonist compounds for 30 minutes at 37° C., 5% CO2 before adding various TLR agonist reagents in 48 μL complete media per well as follows (final concentrations indicated): CpG ODN 2216 (InvivoGen) at 1 μM for TLR9, ORN 06/LyoVec (InvivoGen) at […] for TLR8 and R848 (InvivoGen) at 1p g/mL for TLR7 and TLR8. PBMC were incubated overnight at 37° C. with 5% CO2. Cell culture supernatants were collected, and levels of various human cytokines were assessed by Luminex assay (ProcartaPlex™ Multiplex Immunoassay, Invitrogen) or ELISA procedure according to the manufacturer's recommended protocol (eBioscience, ThermoFisher Scientific). Viability of the cells was also checked with Cell Viability Assay (CellTiter Glo®Luminescent Cell Viability Assay, Promega).
# hERG channel = target: T2, hERG channel (Homo sapiens, UniProt Q12809); assay: hERG channel inhibition assay (patch-clamp, CHOhERG cells); assay type: cell-based; conditions: for IC50 / IC20: CHOhERG cells, whole-cell patch-clamp; for IC20: human, CHO cells stably expressing hERG (CHOhERG); for hERG IC20/TLR7 IC50 / hERG IC20/TLR8 IC50 / hERG IC20/TLR9 IC50: safety ratio; for hERG IC20/TLR7 IC50: hERG IC20 over HEK/hTLR7 IC50; for hERG IC20/TLR8 IC50: hERG IC20 over HEK/hTLR8 IC50; for hERG IC20/TLR9 IC50: hERG IC20 over HEK/hTLR9 IC50
# T2 construct: expressed in transfected cells; host or cells: CHO (CHOhERG)
# Method: The hERG K^+ channels were cloned in humans and stably expressed in a CHO (Chinese hamster ovary) cell line. CHOhERG cells were used for patch-clamp (voltage-clamp, whole-cell) experiments. Cells were stimulated by a voltage pattern to activate hERG channels and conduct IKhERG currents (rapid delayed outward rectifier potassium current of the hERG channel). After the cells were stabilized for a few minutes, the amplitude and kinetics of IKhERG were recorded at a stimulation frequency of 0.1 Hz (6 bpm). Thereafter, the test compound was added to the preparation at increasing concentrations. For each concentration, an attempt was made to reach a steady-state effect, usually, this was achieved within 3-10 min at which time the next highest concentration was applied. The amplitude and kinetics of IKhERG are recorded in each concentration of the drug which were compared to the control values (taken as 100%). (references: Redfern W S, Carlsson L, Davis A S, Lynch W G, MacKenzie I, Palethorpe S, Siegl P K, Strang I, Sullivan A T, Wallis R, Camm A J, Hammond T G. 2003; Relationships between preclinical cardiac electrophysiology, clinical QT interval prolongation and torsade de pointes for a broad range of drugs: evidence for a provisional safety margin in drug development. Cardiovasc. Res. 58:32-45, Sanguinetti MC, Tristani-Firouzi M. 2006; hERG potassium channels and cardiac arrhythmia. Nature 440:463-469, Webster R, Leishman D, Walker D. 2002; Towards a drug concentration effect relationship for QT prolongation and torsades de pointes. Curr. Opin. Drug Discov. Devel. 5:116-26).
# T2 sequence (Q12809 whole entry): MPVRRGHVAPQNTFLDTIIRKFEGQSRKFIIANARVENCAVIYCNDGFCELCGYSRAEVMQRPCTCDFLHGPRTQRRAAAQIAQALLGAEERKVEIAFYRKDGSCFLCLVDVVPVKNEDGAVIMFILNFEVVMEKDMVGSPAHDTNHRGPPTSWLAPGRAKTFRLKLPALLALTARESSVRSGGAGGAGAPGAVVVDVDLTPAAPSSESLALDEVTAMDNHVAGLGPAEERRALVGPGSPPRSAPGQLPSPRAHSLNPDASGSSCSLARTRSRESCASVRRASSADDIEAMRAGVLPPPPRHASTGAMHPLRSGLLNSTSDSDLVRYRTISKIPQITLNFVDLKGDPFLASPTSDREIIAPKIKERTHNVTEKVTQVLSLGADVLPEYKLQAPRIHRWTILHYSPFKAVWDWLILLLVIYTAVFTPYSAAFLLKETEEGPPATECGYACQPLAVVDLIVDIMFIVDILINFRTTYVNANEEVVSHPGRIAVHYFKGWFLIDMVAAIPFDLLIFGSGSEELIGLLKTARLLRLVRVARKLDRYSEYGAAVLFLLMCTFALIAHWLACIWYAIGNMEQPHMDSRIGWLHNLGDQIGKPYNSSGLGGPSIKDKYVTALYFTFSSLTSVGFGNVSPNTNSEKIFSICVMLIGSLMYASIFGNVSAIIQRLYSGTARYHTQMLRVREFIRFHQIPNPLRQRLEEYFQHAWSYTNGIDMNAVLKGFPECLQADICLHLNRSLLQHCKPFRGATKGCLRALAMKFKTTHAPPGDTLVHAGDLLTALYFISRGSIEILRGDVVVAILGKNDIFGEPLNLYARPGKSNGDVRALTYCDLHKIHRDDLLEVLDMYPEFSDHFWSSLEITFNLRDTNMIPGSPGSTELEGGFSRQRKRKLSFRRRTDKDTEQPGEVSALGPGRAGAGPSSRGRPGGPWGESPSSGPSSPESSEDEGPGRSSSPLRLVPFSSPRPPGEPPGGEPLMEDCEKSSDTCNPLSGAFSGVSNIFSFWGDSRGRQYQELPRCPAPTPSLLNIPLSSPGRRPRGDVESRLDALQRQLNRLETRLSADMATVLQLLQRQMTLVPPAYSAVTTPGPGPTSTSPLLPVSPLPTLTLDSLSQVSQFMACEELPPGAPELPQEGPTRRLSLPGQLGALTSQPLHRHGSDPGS
IC50 (TLR9) [nM],Structure (SMILES),IC50 (hERG channel) [nM],IC20 (hERG channel) [nM],hERG IC20/TLR7 IC50 (hERG channel),hERG IC20/TLR8 IC50 (hERG channel),hERG IC20/TLR9 IC50 (hERG channel)
371,"CO[C@H]1CN(c2ccc3c(n2)[C@@H](C)CN(c2cc(C)nc4c2cnn4C)C3)CC[C@@H]1N [Example 65, (3S,4S)-3-methoxy-1-[(8S)-6-(1,6-dimethylpyrazolo[3,4-b]pyridin-4-yl)-8-methyl-7,8-dihydro-5H-1,6-naphthyridin-2-yl]piperidin-4-amine]",,,,,
265,"CC1CN(c2ccnc3c2cnn3C)Cc2ccc(N3CCC4(CCNCC4)CC3)cc21 (centres unmarked) [Example 4, 3-[4-methyl-2-(1-methylpyrazolo[3,4-b]pyridin-4-yl)-3,4-dihydro-1H-isoquinolin-6-yl]-3,9-diazaspiro[5.5]undecane]",,,,,
156,"Cc1cc(N2Cc3ccc(N4CCC5(CCNCC5)CC4)cc3C(C)C2)c2cnn(C)c2n1 (centres unmarked) [Example 5, 3-[2-(1,6-dimethylpyrazolo[3,4-b]pyridin-4-yl)-4-methyl-3,4-dihydro-1H-isoquinolin-6-yl]-3,9-diazaspiro[5.5]undecane]",,,,,
286,"C[C@H]1CN(c2ccnc3c2cnn3C)Cc2ccc(OC3CN(C4CCNCC4)C3)cc21 [Example 41, (4R)-4-methyl-2-(1-methylpyrazolo[3,4-b]pyridin-4-yl)-6-[1-(4-piperidyl)azetidin-3-yl]oxy-3,4-dihydro-1H-isoquinoline]",> 20000,5100,728.6,637.5,108.5
290,"Cc1cc(N2Cc3ccc(N4C[C@@H](N)[C@H](O)C4)cc3[C@@H](C)C2)c2cnn(C)c2n1 [Example 47, trans-4-amino-1-[(4R)-2-(1,6-dimethylpyrazolo[3,4-b]pyridin-4-yl)-4-methyl-3,4-dihydro-1H-isoquinolin-6-yl]pyrrolidin-3-ol]",,,,,
250,"Cc1cc(N2Cc3cnc(N4CCNCC4)cc3[C@@H](C)C2)c2cnn(C)c2n1 [Example 74, (4R)-2-(1,6-dimethylpyrazolo[3,4-b]pyridin-4-yl)-4-methyl-6-piperazin-1-yl-3,4-dihydro-1H-2,7-naphthyridine]",,,,,
326,"C[C@H]1CN(c2ccnc3c2cnn3C)Cc2ccc(N3CCN(c4cc5c(cn4)CCNC5)CC3)cc21 [Example 9, 7-[4-[(4R)-4-methyl-2-(1-methylpyrazolo[3,4-b]pyridin-4-yl)-3,4-dihydro-1H-isoquinolin-6-yl]piperazin-1-yl]-1,2,3,4-tetrahydro-2,6-naphthyridine]",,,,,
340,"CO[C@H]1CN(c2cc3c(cn2)CN(c2cc(C)nc4c2cnn4C)C[C@@H]3C)CC[C@@H]1N [Example 73, (3S,4S)-3-methoxy-1-[(5R)-7-(1,6-dimethylpyrazolo[3,4-b]pyridin-4-yl)-5-methyl-6,8-dihydro-5H-2,7-naphthyridin-3-yl]piperidin-4-amine]",> 20000,6900,1725.0,3450.0,60.0
271,"C[C@H]1CN(c2ccnc3c2cnn3C)Cc2ccc(N3CCC(N4CC(N)C4)CC3)cc21 [Example 28, 1-[1-[(4R)-4-methyl-2-(1-methylpyrazolo[3,4-b]pyridin-4-yl)-3,4-dihydro-1H-isoquinolin-6-yl]-4-piperidyl]azetidin-3-amine]",,,,,
240,"CO[C@@H]1CN(c2ccc3c(c2)[C@@H](C)CN(c2cc(C)nc4c2cnn4C)C3)C[C@H]1N [Example 23, (3R,4R)-4-methoxy-1-[(4R)-2-(1,6-dimethylpyrazolo[3,4-b]pyridin-4-yl)-4-methyl-3,4-dihydro-1H-isoquinolin-6-yl]pyrrolidin-3-amine]",,,,,
475,"C[C@H]1CN(c2ccnc3c2cnn3C)Cc2ccc(N3CCN[C@@H](CO)C3)cc21 [Example 50, [(2R)-4-[(4R)-4-methyl-2-(1-methylpyrazolo[3,4-b]pyridin-4-yl)-3,4-dihydro-1H-isoquinolin-6-yl]piperazin-2-yl]methanol]",,,,,
277,"Cc1cc(N2Cc3ccc(N4CCC(N)CC4)nc3[C@@H](C)C2)c2cnn(C)c2n1 [Example 58, 1-[(8S)-6-(1,6-dimethylpyrazolo[3,4-b]pyridin-4-yl)-8-methyl-7,8-dihydro-5H-1,6-naphthyridin-2-yl]piperidin-4-amine]",,,,,

Structure (SMILES),IC50 (TLR9) [nM],IC50 (hERG channel) [nM],IC20 (hERG channel) [nM],hERG IC20/TLR7 IC50 (hERG channel),hERG IC20/TLR8 IC50 (hERG channel),hERG IC20/TLR9 IC50 (hERG channel)
"C[C@H]1CN(c2ccnc3c2cnn3C)Cc2ccc(N3CCNCC3)cc21 [Example 1, (4R)-4-methyl-2-(1-methylpyrazolo[3,4-b]pyridin-4-yl)-6-piperazin-1-yl-3,4-dihydro-1H-isoquinoline]",396,> 20000,6400,2133.3,3200.0,32.3
"CO[C@@H]1CN(c2ccc3c(n2)[C@@H](C)CN(c2cc(C)nc4c2cnn4C)C3)C[C@H]1N [Example 63, (3R,4R)-4-methoxy-1-[(8S)-6-(1,6-dimethylpyrazolo[3,4-b]pyridin-4-yl)-8-methyl-7,8-dihydro-5H-1,6-naphthyridin-2-yl]pyrrolidin-3-amine]",430,,,,,
"Cn1ncc2c(N3CCc4cc(N5CCNCC5)ccc4C3)ccnc21 [Example 3, 2-(1-methylpyrazolo[3,4-b]pyridin-4-yl)-6-piperazin-1-yl-3,4-dihydro-1H-isoquinoline]",434,> 20000,> 10000,>526.3,>178.6,>54.1
